Data reported in paper PMC6934184, “Selective DNA-PKcs inhibition extends the therapeutic index of localized radiotherapy and chemotherapy” (The Journal of Clinical Investigation, 2019).

Target: T1, CDK14 (PFTK1)/cyclin Y (Homo sapiens, UniProt O94921)
T1 construct: purchased Thermo Fisher Scientific (Life Technologies) SelectScreen
Test: SelectScreen LanthaScreen
Format: binding
Conditions: 1 µM
Summary of the method: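 Percent values come from Thermo SelectScreen profiling of NU5455, combining activity and binding assays. CSF1R was run in Z'LYTE format at Km app ATP, and CAMK1 in Adapta format with ATP listed at 10.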

T1 sequence (O94921 whole entry): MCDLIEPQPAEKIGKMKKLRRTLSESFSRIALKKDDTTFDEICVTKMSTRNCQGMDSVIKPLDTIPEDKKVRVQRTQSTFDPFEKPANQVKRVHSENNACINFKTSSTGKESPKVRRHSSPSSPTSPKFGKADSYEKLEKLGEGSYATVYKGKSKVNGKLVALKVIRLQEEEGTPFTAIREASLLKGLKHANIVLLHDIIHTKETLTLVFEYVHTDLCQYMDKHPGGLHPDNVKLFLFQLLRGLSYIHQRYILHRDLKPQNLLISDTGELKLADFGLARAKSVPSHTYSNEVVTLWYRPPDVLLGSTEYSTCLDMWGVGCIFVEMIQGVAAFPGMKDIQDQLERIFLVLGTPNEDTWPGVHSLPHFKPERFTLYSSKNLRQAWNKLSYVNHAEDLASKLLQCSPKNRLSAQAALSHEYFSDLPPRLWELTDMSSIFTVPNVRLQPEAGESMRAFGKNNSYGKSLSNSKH
T1 sequence (Q8ND76 whole entry partner): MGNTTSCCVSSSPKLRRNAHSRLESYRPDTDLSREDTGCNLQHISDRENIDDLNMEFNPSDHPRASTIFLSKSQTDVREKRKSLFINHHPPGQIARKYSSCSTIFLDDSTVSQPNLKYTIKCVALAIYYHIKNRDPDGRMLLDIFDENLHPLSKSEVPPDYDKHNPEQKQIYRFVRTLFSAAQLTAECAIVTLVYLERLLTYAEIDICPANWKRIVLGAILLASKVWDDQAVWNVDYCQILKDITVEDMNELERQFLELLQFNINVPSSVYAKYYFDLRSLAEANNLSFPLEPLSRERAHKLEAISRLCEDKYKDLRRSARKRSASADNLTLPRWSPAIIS

**Q.** With `CN(C(=O)CN1CCOCC1)c1ccc2sc3c(-c4cccc5c(=O)cc(N6CC7CCC(C6)O7)oc45)cccc3c2c1` [NU5455] as the compound, how does the “% displacement” value read?
**A.** 5.1%
